Several values for one entry are separate records, joined by “and”; a condition that tells them apart may be missing. Identical values can stand only once. Like-named read-outs stand apart in the source and are kept apart here.
What was measured:
M. tuberculosis Erdman = experiment: M. tuberculosis growth in broth culture; type: cell-based; settings: for inhibition of M. tuberculosis growth in broth culture in comparison with MSO / inhibition of M. tuberculosis in broth culture relative to MSO at each of the three concentrations: 10, 100, 1000 μM; for inhibition of M. tuberculosis growth in broth culture in comparison with MSO: 6 weeks (FIG. 4); for inhibition of M. tuberculosis in broth culture relative to MSO at each of the three concentrations / inhibition of M. tuberculosis growth in broth culture: Example 7; for inhibition of M. tuberculosis growth in broth culture: 10, 100 or 1000 μM, 6 weeks
[1] = α-Et-MSO: convulsions in a minority of mice vs MSO dose giving 100% of mice; cited from earlier work
[2] = system: M. tuberculosis Erdman in human macrophages (THP-1 cells); settings: 20, 200, 2000 μM, CFU to day 5 (FIG. 5)
[3] = cited from earlier work; for metabolism: do not form the toxic products formed in vivo from MSO
[4] = Description: Exemplary, non-limiting GS inhibitors of the present invention and their relevant properties are summarized below: [drawing 1]
[5] = in vivo; cited from earlier work
[6] = doses that fully inhibit glutathione synthesis; cited from earlier work
[7] = system: M. tuberculosis Erdman strain; type: in vivo; settings: for reduction of CFU in lung and spleen below the level obtained with MSO: from day 14
Remark: listed apart in the source

Compound: CC(N)(CCS(C)(=N)=O)C(=O)O (racemic) [α-Me-MSO, α-methyl-DL-methionine-SR-sulfoximine]
- inhibition of M. tuberculosis growth in broth culture in comparison with MSO (M. tuberculosis Erdman): as inhibitory to M. tuberculosis growth as MSO
- inhibition of M. tuberculosis in broth culture relative to MSO at each of the three concentrations (M. tuberculosis Erdman): slightly less inhibitory than MSO
- inhibition of M. tuberculosis growth in broth culture (M. tuberculosis Erdman): inhibited M. tuberculosis
- dose that causes convulsions in mice, higher than MSO [1]: ~8 fold
- inhibition of M. tuberculosis growth in human macrophages [2]: readily inhibited M. tuberculosis growth in human macrophages
- metabolism [3]: resistant to metabolism
- Metabolized In Vivo [3]: −
- Estimated Dose of L Isomer that Induces Convulsions in Mice (Relative to MSO) ([4]; Table 1): 8
- Estimated Dose of L Isomer that Induces Convulsions in Mice (Relative to MSO) ([4]; Table 3): 8
- entry into the brain compared with MSO [5]: do not enter the brain as readily as MSO

Compound: CCCCS(=N)(=O)CCC(N)C(=O)O [BSO, D, L-Buthionine-SR-Sulfoximine]
- inhibition of M. tuberculosis growth in broth culture (M. tuberculosis Erdman): did not
- animals killed [6]: 100%

Compound: NNC(=O)c1ccncc1 [INH, isoniazid]
- reduction of CFU in lung and spleen below the level obtained with MSO ([7]; INH 1 mg kg^−1 day^−1 oral): ~1.5 logs
- reduction of CFU in lung and spleen below the level obtained with MSO ([7]; INH 4 mg kg^−1 day^−1 oral): ~2.5 logs
- protection from weight loss ([7]; […], MSO 1.5, INH 1 or 4 mg kg^−1 day^−1): protected animals from weight loss

Compound: CCC(N)(CCS(C)(=N)=O)C(=O)O (racemic) [α-Et-MSO, α-ethyl-DL-methionine-SR-sulfoximine]
- inhibition of M. tuberculosis growth in broth culture in comparison with MSO (M. tuberculosis Erdman): as inhibitory to M. tuberculosis growth as MSO
- inhibition of M. tuberculosis in broth culture relative to MSO at each of the three concentrations (M. tuberculosis Erdman): as inhibitory or slightly more inhibitory than MSO
- inhibition of M. tuberculosis growth in broth culture (M. tuberculosis Erdman): inhibited M. tuberculosis
- dose that causes convulsions in mice, higher than MSO [1]: 16 fold
- inhibition of M. tuberculosis growth in human macrophages [2]: readily inhibited M. tuberculosis growth in human macrophages
- metabolism [3]: resistant to metabolism
- Metabolized In Vivo [3]: −
- Estimated Dose of L Isomer that Induces Convulsions in Mice (Relative to MSO) ([4]; Table 1): >16
- Estimated Dose of L Isomer that Induces Convulsions in Mice (Relative to MSO) ([4]; Table 3): ≧16
- entry into the brain compared with MSO [5]: do not enter the brain as readily as MSO

Compound: CS(=N)(=O)CC[C@H](N)C(=O)O (stereo partly drawn) [MSO, L-methionine-SR-sulfoximine]
- inhibition of M. tuberculosis growth in broth culture (M. tuberculosis Erdman): inhibited M. tuberculosis
- Estimated Dose of L Isomer that Induces Convulsions in Mice (Relative to MSO) ([4]; Table 1): 1
- Estimated Dose of L Isomer that Induces Convulsions in Mice (Relative to MSO) ([4]; Table 3): 1
- fewer CFU of M. tuberculosis in lung and spleen than control animals ([7]; in vivo): approximately 1 log unit
- protection from weight loss ([7]; in vivo): protected animals from weight loss
- reduction of CFU of M. tuberculosis in lungs and spleen compared with control animals ([7]; in vivo): ~0.7 logs
- reduction of bacterial counts in lung and spleen ([7]; in vivo): effective at reducing bacterial counts
- survival of the 10 week observation period ([7]; in vivo): 100% and 80% and 60%
- weight gain versus untreated controls ([7]; in vivo): gained significantly more weight than untreated controls
- weight loss versus untreated controls ([7]; in vivo): protected from weight loss
- reduction of CFU in lungs and spleen compared with untreated controls ([7]; in vivo, ip): 2.5 logs
- MTD in the presence of ascorbate relative to absence of ascorbate (guinea pig, in vivo): 4 fold
- maximum tolerated dose for guinea pigs infected with M. tuberculosis (guinea pig, in vivo): 1.5 mg kg^−1 day^−
- tolerability (guinea pig, in vivo): well-tolerated

Compound: O=C1O[C@H]([C@@H](O)CO)C(O)=C1O [ascorbate]
- total dose well tolerated by guinea pigs (i.p., 9 mmoles kg^−1 day^−1 not well tolerated): 3 mmol/kg/day

Source: patent US20060142251A1, “Anti-microbial agents derived from methionine sulfoximine analogues” (priority 2002, published 2006)
